US20260306503A1, “(S)-2-HYDROXY-6-((4-(2-(2-HYDROXYETHYL)NICOTINOYL)MORPHOLIN-3-YL)METHOXY)BENZALDEHYD FOR USE IN THE TREATMENT OF SICKLE CELL DISEASE” (Global Blood Therapeutics, Inc., priority 2023, published 2026)

System: participants with SCD
Assay: Preliminary blood analysis of SCD patients given oral Compound I, 300 mg QD for 14 days then 200 mg QD through Week 12 (Part A Sub Study 2);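 as to Bilirubin total: values in mg/dL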
Assay type: in vivo, human
Experimental: Part A of this study is a Phase 2 randomized, open-label, dose-finding study in approximately 60 adult participants with SCD. The primary objective of Part A of this study is to assess the effects of Compound I in adult participants with SCD as measured by change in hemoglobin.
Participants are screened for eligibility in the study from Day −28 through Day −1. Eligible participants are randomized on Day 1 based on a 1:1 (100 mg: 150 mg) allocation and will receive their initial dose (loading dose) of Compound I. After completion of Day 1 assessments and subsequent loading doses, participants will continue with administration of their maintenance dose daily through Week 12.
Some newly enrolled participants in Part A will receive a loading dose regimen of 300 mg of Compound I once daily over the first 14 days. Participants will then receive 200 mg once daily maintenance doses through Week 12.

For `O=Cc1c(O)cccc1OC[C@@H]1COCCN1C(=O)c1cccnc1CCO` [Compound I, (S)-2-hydroxy-6-((4-(2-(2-hydroxyethyl)nicotinoyl)morpholin-3-yl)methoxy)benzaldehyde], the Bilirubin direct (Patient A, Day 1, Day 0 (screening) 0.48) was <0.01 mg/dL, the Absolute neutrophil (Patient A, Day 1, Day 0 (screening) 1.7) was 2.2 K/μL and the Reticulocytes (Patient A, Day 1, Day 0 (screening) 2.2) was 5.2%. The Bilirubin total (Patient A, Day 1, Day 0 (screening) 2.4) was 2.16 mg/dL, the “Hemoglobin (HGB)” value (Patient A, Day 1, Day 0 (screening) 7.0) was 8.8 g/dL and the “Hematocrit (HCT)” value (Patient A, Day 1, Day 0 (screening) 20.4) was 25.1%. The “Alanine Aminotransferase (ALT)” value (Patient A, Day 1, Day 0 (screening) 26.1) was 28.2 IU/L, the “Aspartate Aminotransferase (AST)” value (Patient A, Day 1, Day 0 (screening) 56.0) was 60.0 IU/L and the Alkaline phosphatase (Patient A, Day 1, Day 0 (screening) 143.5) was 152.7 IU/L. For the same compound, the Platelet count (Patient A, Day 1, Day 0 (screening) 148) was 219 K/μL, the “Lactate dehydrogenase (LDH)” value (Patient A, Day 1, Day 0 (screening) 358) was 339 IU/L and the Bilirubin direct (Patient A, Day 15, Day 0 (screening) 0.48) was <0.01 mg/dL. For the same compound, the Absolute neutrophil (Patient A, Day 15, Day 0 (screening) 1.7) was 2.2 K/μL, the Reticulocytes (Patient A, Day 15, Day 0 (screening) 2.2) was 3.0% and the Bilirubin total (Patient A, Day 15, Day 0 (screening) 2.4) was 1.06 mg/dL. The “Hemoglobin (HGB)” value (Patient A, Day 15, Day 0 (screening) 7.0) was 10.6 g/dL, the “Hematocrit (HCT)” value (Patient A, Day 15, Day 0 (screening) 20.4) was 30.9% and the “Alanine Aminotransferase (ALT)” value (Patient A, Day 15, Day 0 (screening) 26.1) was 26.1 IU/L. For the same compound, the “Aspartate Aminotransferase (AST)” value (Patient A, Day 15, Day 0 (screening) 56.0) was 43.1 IU/L, the Alkaline phosphatase (Patient A, Day 15, Day 0 (screening) 143.5) was 156.7 IU/L and the Platelet count (Patient A, Day 15, Day 0 (screening) 148) was 239 K/μL. For the same compound, the “Lactate dehydrogenase (LDH)” value (Patient A, Day 15, Day 0 (screening) 358) was 243 IU/L, the Absolute neutrophil (Patient A, Day 29, Day 0 (screening) 1.7) was 0.5 K/μL and the Reticulocytes (Patient A, Day 29, Day 0 (screening) 2.2) was 2.0%. For the same compound, the “Hemoglobin (HGB)” value (Patient A, Day 29, Day 0 (screening) 7.0) was 12.2 g/dL, the “Hematocrit (HCT)” value (Patient A, Day 29, Day 0 (screening) 20.4) was 35.9% and the Platelet count (Patient A, Day 29, Day 0 (screening) 148) was 211 K/μL. It also gave a Bilirubin direct (Patient A, Day 43, Day 0 (screening) 0.48) of 0.28 mg/dL, an Absolute neutrophil (Patient A, Day 43, Day 0 (screening) 1.7) of 0.6 K/μL and a Bilirubin indirect (Patient A, Day 43, Day 0 (screening) 1.92) of 0.78 mg/dL. For the same compound, the Reticulocytes (Patient A, Day 43, Day 0 (screening) 2.2) was 1.5%, the Bilirubin total (Patient A, Day 43, Day 0 (screening) 2.4) was 1.06 mg/dL and the “Hemoglobin (HGB)” value (Patient A, Day 43, Day 0 (screening) 7.0) was 14.9 g/dL. For the same compound, the “Hematocrit (HCT)” value (Patient A, Day 43, Day 0 (screening) 20.4) was 43.3%, the “Alanine Aminotransferase (ALT)” value (Patient A, Day 43, Day 0 (screening) 26.1) was 28.9 IU/L and the “Aspartate Aminotransferase (AST)” value (Patient A, Day 43, Day 0 (screening) 56.0) was 44.1 IU/L. The Alkaline phosphatase (Patient A, Day 43, Day 0 (screening) 143.5) was 160.8 IU/L, the Platelet count (Patient A, Day 43, Day 0 (screening) 148) was 249 K/μL and the “Lactate dehydrogenase (LDH)” value (Patient A, Day 43, Day 0 (screening) 358) was 193 IU/L. The Bilirubin direct (Patient A, Day 57, Day 0 (screening) 0.48) was 0.38 mg/dL, the Absolute neutrophil (Patient A, Day 57, Day 0 (screening) 1.7) was 3.5 K/μL and the Bilirubin indirect (Patient A, Day 57, Day 0 (screening) 1.92) was 2.39 mg/dL. For the same compound, the Reticulocytes (Patient A, Day 57, Day 0 (screening) 2.2) was 0.1%, the Bilirubin total (Patient A, Day 57, Day 0 (screening) 2.4) was 2.77 mg/dL and the “Hemoglobin (HGB)” value (Patient A, Day 57, Day 0 (screening) 7.0) was 12.4 g/dL. The “Hematocrit (HCT)” value (Patient A, Day 57, Day 0 (screening) 20.4) was 36.3%, the “Alanine Aminotransferase (ALT)” value (Patient A, Day 57, Day 0 (screening) 26.1) was 66.6 IU/L and the “Aspartate Aminotransferase (AST)” value (Patient A, Day 57, Day 0 (screening) 56.0) was 82.9 IU/L. For the same compound, the Alkaline phosphatase (Patient A, Day 57, Day 0 (screening) 143.5) was 198.2 IU/L, the Platelet count (Patient A, Day 57, Day 0 (screening) 148) was 153 K/μL and the “Lactate dehydrogenase (LDH)” value (Patient A, Day 57, Day 0 (screening) 358) was 345 IU/L. For the same compound, the Bilirubin direct (Patient A, Day 85, Day 0 (screening) 0.48) was 0.08 mg/dL, the Absolute neutrophil (Patient A, Day 85, Day 0 (screening) 1.7) was 1.1 K/μL and the Bilirubin indirect (Patient A, Day 85, Day 0 (screening) 1.92) was 2.81 mg/dL. The Reticulocytes (Patient A, Day 85, Day 0 (screening) 2.2) was 5.2%, the Bilirubin total (Patient A, Day 85, Day 0 (screening) 2.4) was 2.89 mg/dL and the “Hemoglobin (HGB)” value (Patient A, Day 85, Day 0 (screening) 7.0) was 11.0 g/dL. For the same compound, the “Hematocrit (HCT)” value (Patient A, Day 85, Day 0 (screening) 20.4) was 31.0%, the “Alanine Aminotransferase (ALT)” value (Patient A, Day 85, Day 0 (screening) 26.1) was 28.2 IU/L and the “Aspartate Aminotransferase (AST)” value (Patient A, Day 85, Day 0 (screening) 56.0) was 54.0 IU/L. For the same compound, the Alkaline phosphatase (Patient A, Day 85, Day 0 (screening) 143.5) was 150.6 IU/L, the Platelet count (Patient A, Day 85, Day 0 (screening) 148) was 146 K/μL and the “Lactate dehydrogenase (LDH)” value (Patient A, Day 85, Day 0 (screening) 358) was 354 IU/L. For the same compound, the Bilirubin direct (Patient B, Day 1, Day 0 (screening) 0.18) was 0.18 mg/dL, the Bilirubin indirect (Patient B, Day 1, Day 0 (screening) 4.66) was 4.17 mg/dL and the Bilirubin total (Patient B, Day 1, Day 0 (screening) 4.84) was 4.35 mg/dL. For the same compound, the Absolute neutrophil (Patient B, Day 1, Day 0 (screening) 6.9) was 7.3 K/μL, the “Hemoglobin (HGB)” value (Patient B, Day 1, Day 0 (screening) 8.3) was 8.5 g/dL and the Reticulocytes (Patient B, Day 1, Day 0 (screening) 11.5) was 9.5%. The “Alanine Aminotransferase (ALT)” value (Patient B, Day 1, Day 0 (screening) 22.0) was 22.0 IU/L, the “Hematocrit (HCT)” value (Patient B, Day 1, Day 0 (screening) 23.5) was 24.7% and the “Aspartate Aminotransferase (AST)” value (Patient B, Day 1, Day 0 (screening) 41.1) was 39.1 IU/L. The Alkaline phosphatase (Patient B, Day 1, Day 0 (screening) 49.3) was 52.4 IU/L, the Platelet count (Patient B, Day 1, Day 0 (screening) 360) was 344 K/μL and the “Lactate dehydrogenase (LDH)” value (Patient B, Day 1, Day 0 (screening) 371) was 351 IU/L. The Bilirubin direct (Patient B, Day 8, Day 0 (screening) 0.18) was 0.08 mg/dL, the Bilirubin indirect (Patient B, Day 8, Day 0 (screening) 4.66) was 2.32 mg/dL and the Bilirubin total (Patient B, Day 8, Day 0 (screening) 4.84) was 2.4 mg/dL. For the same compound, the Absolute neutrophil (Patient B, Day 8, Day 0 (screening) 6.9) was 4.1 K/μL, the “Hemoglobin (HGB)” value (Patient B, Day 8, Day 0 (screening) 8.3) was 11.2 g/dL and the Reticulocytes (Patient B, Day 8, Day 0 (screening) 11.5) was 5.4%. For the same compound, the “Alanine Aminotransferase (ALT)” value (Patient B, Day 8, Day 0 (screening) 22.0) was 21.3 IU/L, the “Hematocrit (HCT)” value (Patient B, Day 8, Day 0 (screening) 23.5) was 33.1% and the “Aspartate Aminotransferase (AST)” value (Patient B, Day 8, Day 0 (screening) 41.1) was 42.1 IU/L. The Alkaline phosphatase (Patient B, Day 8, Day 0 (screening) 49.3) was 58.5 IU/L, the Platelet count (Patient B, Day 8, Day 0 (screening) 360) was 411 K/μL and the “Lactate dehydrogenase (LDH)” value (Patient B, Day 8, Day 0 (screening) 371) was 385 IU/L. It also gave a Bilirubin direct (Patient B, Day 29, Day 0 (screening) 0.18) of 0.18 mg/dL, a Bilirubin indirect (Patient B, Day 29, Day 0 (screening) 4.66) of 0.88 mg/dL and a Bilirubin total (Patient B, Day 29, Day 0 (screening) 4.84) of 1.06 mg/dL. For the same compound, the Absolute neutrophil (Patient B, Day 29, Day 0 (screening) 6.9) was 4.1 K/μL, the “Hemoglobin (HGB)” value (Patient B, Day 29, Day 0 (screening) 8.3) was 14.4 g/dL and the Reticulocytes (Patient B, Day 29, Day 0 (screening) 11.5) was 1.2%. For the same compound, the “Alanine Aminotransferase (ALT)” value (Patient B, Day 29, Day 0 (screening) 22.0) was 17.2 IU/L, the “Hematocrit (HCT)” value (Patient B, Day 29, Day 0 (screening) 23.5) was 42.8% and the “Aspartate Aminotransferase (AST)” value (Patient B, Day 29, Day 0 (screening) 41.1) was 29.1 IU/L. For the same compound, the Alkaline phosphatase (Patient B, Day 29, Day 0 (screening) 49.3) was 67.6 IU/L, the Platelet count (Patient B, Day 29, Day 0 (screening) 360) was 333 K/μL and the “Lactate dehydrogenase (LDH)” value (Patient B, Day 29, Day 0 (screening) 371) was 195 IU/L. The Bilirubin direct (Patient B, Day 43, Day 0 (screening) 0.18) was 0.18 mg/dL, the Bilirubin indirect (Patient B, Day 43, Day 0 (screening) 4.66) was 0.51 mg/dL and the Bilirubin total (Patient B, Day 43, Day 0 (screening) 4.84) was 0.69 mg/dL. The Absolute neutrophil (Patient B, Day 43, Day 0 (screening) 6.9) was 3.7 K/μL, the “Hemoglobin (HGB)” value (Patient B, Day 43, Day 0 (screening) 8.3) was 15.2 g/dL and the Reticulocytes (Patient B, Day 43, Day 0 (screening) 11.5) was 0.8%. For the same compound, the “Alanine Aminotransferase (ALT)” value (Patient B, Day 43, Day 0 (screening) 22.0) was 16.5 IU/L.
